Where “and” joins values, the source holds several entries; their conditions need not be identical. Equal values may be shown once. Results filed as inconclusive are left out.

This experiment concerns mice, ADJ-PC-20 plasma cell tumor sc, T/C %. Nature of the experiment: NCI In Vivo Anticancer Drug Screen. Data for tumor model ADJ-PC-20 Plasma Cell (subcutaneous) in unknown mice. To be noted: endpoint: mean tumor weight, higher = larger tumour. As for the experimental part:
The antitumor activity of compounds was measured in mice bearing transplantable tumors. Survival or tumor size were measured and the results are expressed as the measurement made in the treated group (T) divided by the measurement made in the vehicle treated control group (C). The tumor model used in this assay is ADJ-PC-20 Plasma Cell (subcutaneous) in unknown mice

Setting [1] is: dose: 25.0 mg/kg/injection, schedule: Q01DX010 (ip), vehicle: carboxymethylcellulose (CMC).
[2] abbreviates: dose: 1.0 mg/kg/injection, schedule: Q01DX010 (ip), vehicle: carboxymethylcellulose (CMC).
The mark [3] stands for this setting: dose: 2.0 mg/kg/injection, schedule: Q01DX010 (ip), vehicle: carboxymethylcellulose (CMC).
Setting [4] is: dose: 4.0 mg/kg/injection, schedule: Q01DX010 (ip), vehicle: carboxymethylcellulose (CMC).
Where [5] appears, read: dose: 8.0 mg/kg/injection, schedule: Q01DX010 (ip), vehicle: carboxymethylcellulose (CMC).
Setting [6] is: dose: 125.0 mg/kg/injection, schedule: Q01DX010 (sc), vehicle: steriod suspending solution.
Setting [7] is: dose: 250.0 mg/kg/injection, schedule: Q01DX010 (sc), vehicle: steriod suspending solution.
Setting [8] is: dose: 500.0 mg/kg/injection, schedule: Q01DX010 (sc), vehicle: steriod suspending solution.
Where [9] appears, read: dose: 1000.0 mg/kg/injection, schedule: Q01DX010 (sc), vehicle: steriod suspending solution.

With `O=C1C(NC(=O)C2CCCCC2)=C(N2CC2)C(=O)C(NC(=O)C2CCCCC2)=C1N1CC1`, the T/C (dose: 37.5 mg/kg/injection, schedule: Q01DX010 (ip), vehicle: carboxymethylcellulose (CMC)) was 102 % of control and 115 % of control.
On to `CCN(CC)CCNc1ccc(C)c2sc3ccccc3c(=O)c12`, for which the T/C is 150 % of control (dose: 0.78 mg/kg/injection, schedule: Q01DX010 (ip), vehicle: methylcellulose (MC)); 194 % of control (dose: 1.56 mg/kg/injection, schedule: Q01DX010 (ip), vehicle: methylcellulose (MC)); 27 % of control (dose: 6.25 mg/kg/injection, schedule: Q01DX010 (ip), vehicle: methylcellulose (MC)).
Regarding `CC[C@]1(O)C[C@H]2CN(CCc3c([nH]c4ccccc34)[C@@](C(=O)OC)(c3cc4c(cc3OC)N(C=O)[C@H]3[C@@](O)(C(=O)OC)[C@H](OC(C)=O)[C@]5(CC)C=CCN6CC[C@]43[C@@H]65)C2)C1`, the T/C is, setting by setting: (dose: 0.12 mg/kg/injection, schedule: Q01DX010 (ip), vehicle: water) 109 % of control; (dose: 0.5 mg/kg/injection, schedule: Q01DX010 (ip), vehicle: water) 105 % of control; (dose: 31.0 micrograms/kg/injection, schedule: Q01DX010 (ip), vehicle: water) 97 % of control; (dose: 62.0 micrograms/kg/injection, schedule: Q01DX010 (ip), vehicle: water) 95 % of control; (dose: 125.0 micrograms/kg/injection, schedule: Q01DX010 (ip), vehicle: water) 90 % of control; (dose: 250.0 micrograms/kg/injection, schedule: Q01DX010 (ip), vehicle: water) 63 % of control.
In the case of `O=C(Nc1ccc(C2=NCCCN2)cc1)c1ccc(C(=O)Nc2ccc(C3=NCCCN3)cc2)cc1`, the T/C by setting is: (dose: 0.05 mg/kg/injection, schedule: Q01DX010 (ip), vehicle: water) 90 % of control; (dose: 0.1 mg/kg/injection, schedule: Q01DX010 (ip), vehicle: water) 83 % of control; (dose: 0.2 mg/kg/injection, schedule: Q01DX010 (ip), vehicle: water) 109 % of control; (dose: 0.4 mg/kg/injection, schedule: Q01DX010 (ip), vehicle: water) 91 % of control and 92 % of control; (dose: 3.12 mg/kg/injection, schedule: Q01DX010 (ip), vehicle: saline) 65 % of control.
Turning to `S=c1nc[nH]c2nc[nH]c12`, the T/C reads like this: (dose: 3.1 mg/kg/injection, schedule: Q01DX010 (ip), vehicle: other) 28 % of control; (dose: 6.2 mg/kg/injection, schedule: Q01DX010 (ip), vehicle: other) 16 % of control; (dose: 6.25 mg/kg/injection, schedule: Q01DX010 (ip), vehicle: other) 19 % of control; (dose: 6.25 mg/kg/injection, schedule: Q01DX011 (ip), vehicle: other) 7 % of control; (dose: 12.5 mg/kg/injection, schedule: Q01DX010 (ip), vehicle: other) 18 % of control; (dose: 12.5 mg/kg/injection, schedule: Q01DX011 (ip), vehicle: other) 4 % of control. In addition, the T/C by setting is: (dose: 25.0 mg/kg/injection, schedule: Q01DX010 (ip), vehicle: other) 9 % of control and 10 % of control; (dose: 25.0 mg/kg/injection, schedule: Q01DX011 (ip), vehicle: other) 5 % of control; (dose: 50.0 mg/kg/injection, schedule: Q01DX011 (ip), vehicle: other) 7 % of control.
For `CC1CCOS(=O)O1` (configuration not stated), the T/C is, setting by setting: (dose: 10.0 mg/kg/injection, schedule: Q01DX010 (ip), vehicle: carboxymethylcellulose (CMC)) 65 % of control; (dose: 20.0 mg/kg/injection, schedule: Q01DX010 (ip), vehicle: carboxymethylcellulose (CMC)) 50 % of control; (dose: 40.0 mg/kg/injection, schedule: Q01DX010 (ip), vehicle: carboxymethylcellulose (CMC)) 32 % of control.
For `CSc1ncnc2c1ncn2C1OC(CO)C(O)C1O` (configuration not stated), the T/C runs as follows: (dose: 3.1 mg/kg/injection, schedule: Q01DX010 (ip), vehicle: carboxymethylcellulose (CMC)) 84 % of control; (dose: 6.25 mg/kg/injection, schedule: Q01DX010 (ip), vehicle: carboxymethylcellulose (CMC)) 98 % of control; (dose: 12.5 mg/kg/injection, schedule: Q01DX010 (ip), vehicle: carboxymethylcellulose (CMC)) 104 % of control; under setting [1], 14 % of control.
In the case of `OCC1OC(n2cnc3c(=S)nc[nH]c32)C(O)C1O` (configuration not stated), the T/C was 87 % of control (dose: 0.5 mg/kg/injection, schedule: Q01DX010 (ip), vehicle: carboxymethylcellulose (CMC)); 51 % of control under setting [2]; 25 % of control under setting [3]; 2 % of control under setting [4]; 22 % of control under setting [5].
For `CCCNc1ncnc2[nH]ncc12`, the T/C is 97 % of control (dose: 5.0 mg/kg/injection, schedule: Q01DX010 (ip), vehicle: water); 86 % of control (dose: 10.0 mg/kg/injection, schedule: Q01DX010 (ip), vehicle: water); 95 % of control (dose: 20.0 mg/kg/injection, schedule: Q01DX010 (ip), vehicle: water).
Regarding `CC/C(=C(/CC)c1ccc(O)cc1)c1ccc(O)cc1`, under “dose: 62.5 mg/kg/injection, schedule: Q01DX010 (sc), vehicle: steriod suspending solution”, the T/C is 105 % of control.
For `CS(=O)(=O)OCC(O)C(O)COS(C)(=O)=O` (configuration not stated), the T/C reads like this: (dose: 99.0 mg/kg/injection, schedule: Q01DX010 (ip), vehicle: saline) 78 % of control; (dose: 188.0 mg/kg/injection, schedule: Q01DX010 (ip), vehicle: saline) 53 % of control; (dose: 375.0 mg/kg/injection, schedule: Q01DX010 (ip), vehicle: saline) 58 % of control; (dose: 750.0 mg/kg/injection, schedule: Q01DX010 (ip), vehicle: saline) 7 % of control.
Take `Nc1ncnc2c1ccn2C1OC(CO)C(O)C1O` (configuration not stated): the T/C (dose: 0.63 mg/kg/injection, schedule: Q01DX010 (ip), vehicle: carboxymethylcellulose (CMC)) was 94 % of control.
Regarding `NC(=O)N(CCCl)N=O`, the T/C is, setting by setting: (dose: 1.75 mg/kg/injection, schedule: Q01DX010 (ip), vehicle: carboxymethylcellulose (CMC)) 93 % of control; (dose: 3.5 mg/kg/injection, schedule: Q01DX010 (ip), vehicle: carboxymethylcellulose (CMC)) 105 % of control; (dose: 7.0 mg/kg/injection, schedule: Q01DX010 (ip), vehicle: carboxymethylcellulose (CMC)) 102 % of control.
On to `CC[C@@H](c1ccc(O)cc1)[C@@H](CC)c1ccc(O)cc1`, for which the T/C runs as follows: (dose: 62.0 mg/kg/injection, schedule: Q01DX010 (sc), vehicle: steriod suspending solution) 80 % of control; under setting [6], 87 % of control; under setting [7], 83 % of control; under setting [8], 91 % of control and 105 % of control; under setting [9], 111 % of control.
For the molecule `O=C(Nc1ccc(C2=NCCN2)cc1)c1ccc(C(=O)Nc2ccc(C3=NCCN3)cc2)cc1`, the T/C is, setting by setting: under setting [1], 73 % of control; (dose: 50.0 mg/kg/injection, schedule: Q01DX010 (ip), vehicle: carboxymethylcellulose (CMC)) 78 % of control; (dose: 100.0 mg/kg/injection, schedule: Q01DX010 (ip), vehicle: carboxymethylcellulose (CMC)) 60 % of control; (dose: 200.0 mg/kg/injection, schedule: Q01DX010 (ip), vehicle: carboxymethylcellulose (CMC)) 71 % of control.
Regarding `O=CN(O)CC(=O)O`, the T/C is 124 % of control (dose: 62.5 mg/kg/injection, schedule: Q01DX011 (ip), vehicle: carboxymethylcellulose (CMC)); 76 % of control (dose: 125.0 mg/kg/injection, schedule: Q01DX011 (ip), vehicle: carboxymethylcellulose (CMC)); 74 % of control (dose: 250.0 mg/kg/injection, schedule: Q01DX011 (ip), vehicle: carboxymethylcellulose (CMC)); 89 % of control (dose: 500.0 mg/kg/injection, schedule: Q01DX010 (ip), vehicle: carboxymethylcellulose (CMC)); 56 % of control (dose: 500.0 mg/kg/injection, schedule: Q01DX011 (ip), vehicle: carboxymethylcellulose (CMC)); 63 % of control (dose: 1000.0 mg/kg/injection, schedule: Q01DX010 (ip), vehicle: carboxymethylcellulose (CMC)).
As for `CCn1cnc2c(=S)nc[nH]c21`, the T/C under setting [2] is 71 % of control, the T/C under setting [3] is 48 % of control, the T/C under setting [4] is 11 % of control and the T/C under setting [5] was 2 % of control.
As for `CCC(=O)O[C@H]1CC[C@H]2[C@@H]3CCC4=CC(=O)CC[C@]4(C)[C@H]3CC[C@]12C`, the T/C reads like this: under setting [6], 79 % of control; under setting [7], 154 % of control; under setting [8], 76 % of control; under setting [9], 108 % of control; (dose: 2000.0 mg/kg/injection, schedule: Q01DX010 (sc), vehicle: steriod suspending solution) 80 % of control.

(Values after PubChem BioAssay AID332 (DTP/NCI, 2004).)
